According to patent US7342122B2, “Bisphosphonate complexes” (priority 2003, dated 2008):
pIC50: −log10 of the molar value.

Columns and labels:
[1] = tested on: KB cells; assay: In vitro assay, cell growth inhibition (KB cells); assay type: cell-based; settings: 72 hours
Method: (§1) KB cells were purchased from Human Science Research Resource Bank (Osaka, Japan). The cells were cultured in Earle's MEM (GIBCO BRL) containing 10% FBS (Bio Whittaker) at 37° C. under 5% CO2. After 24 hours the test compounds were added to the cells at the indicated concentrations. 72 hours later the cells were stained with tripan blue and counted manually. IC50 is calculated as the concentration (aqueous solution) of complex required to inhibit growth of cells by 50%.

[2] = tested on: HBC-4; assay: Cell growth inhibition, breast cancer cell line HBC-4; assay type: cell-based; settings: HBC-4, breast cancer cell line
Method: as §1
(§2) In a similar fashion a representative number of examples of compounds of the invention were tested for their ability to inhibit the growth/proliferation of cell types representing a number of different cancers. The results are provided in Tables 4-13, below, which provide the Inhibition Constants (IC50, μM) for each compound across various cell lines.

[3] = tested on: BSY-1; assay: Cell growth inhibition, breast cancer cell line BSY-1; assay type: cell-based; settings: BSY-1, breast cancer cell line
Method: as §1, §2

[4] = tested on: HBC-5; assay: Cell growth inhibition, breast cancer cell line HBC-5; assay type: cell-based; settings: HBC-5, breast cancer cell line
Method: as §1, §2

[5] = tested on: MCF-7; assay: Cell growth inhibition, breast cancer cell line MCF-7; assay type: cell-based; settings: MCF-7, breast cancer cell line
Method: as §1, §2

[6] = tested on: MDA-MB-231; assay: Cell growth inhibition, breast cancer cell line MDA-MB-231; assay type: cell-based; settings: MDA-MB-231, breast cancer cell line
Method: as §1, §2

[7] = tested on: U251; assay: Cell growth inhibition, brain cancer cell line U251; assay type: cell-based
Method: as §1, §2

[8] = tested on: SF-268; assay: Cell growth inhibition, brain cancer cell line SF-268; assay type: cell-based; settings: SF-268, brain cancer cell line
Method: as §1, §2

[9] = tested on: SF-295; assay: Cell growth inhibition, brain cancer cell line SF-295; assay type: cell-based; settings: SF-295, brain cancer cell line
Method: as §1, §2

[10] = tested on: SF-539; assay: Cell growth inhibition, brain cancer cell line SF-539; assay type: cell-based; settings: SF-539, brain cancer cell line
Method: as §1, §2

[11] = tested on: SNB-75; assay: Cell growth inhibition, brain cancer cell line SNB-75; assay type: cell-based; settings: SNB-75, brain cancer cell line
Method: as §1, §2

[12] = tested on: SNB-78; assay: Cell growth inhibition, brain cancer cell line SNB-78; assay type: cell-based; settings: SNB-78, brain cancer cell line
Method: as §1, §2

[13] = tested on: HCC2998; assay: Cell growth inhibition, colon cancer cell line HCC2998; assay type: cell-based
Method: as §1, §2

[14] = tested on: KM-12; assay: Cell growth inhibition, colon cancer cell line KM-12; assay type: cell-based; settings: KM-12, colon cancer cell line
Method: as §1, §2

[15] = tested on: HT-29; assay: Cell growth inhibition, colon cancer cell line HT-29; assay type: cell-based; settings: HT-29, colon cancer cell line
Method: as §1, §2

[16] = tested on: HCT-15; assay: Cell growth inhibition, colon cancer cell line HCT-15; assay type: cell-based; settings: HCT-15, colon cancer cell line
Method: as §1, §2

[17] = tested on: HCT-116; assay: Cell growth inhibition, colon cancer cell line HCT-116; assay type: cell-based; settings: HCT-116, colon cancer cell line
Method: as §1, §2

[18] = tested on: NCI-H23; assay: Cell growth inhibition, lung cancer cell line NCI-H23; assay type: cell-based
Method: as §1, §2

[19] = tested on: NCI-H226; assay: Cell growth inhibition, lung cancer cell line NCI-H226; assay type: cell-based
Method: as §1, §2

[20] = tested on: NCI-H522; assay: Cell growth inhibition, lung cancer cell line NCI-H522; assay type: cell-based
Method: as §1, §2

[21] = tested on: NCI-H460; assay: Cell growth inhibition, lung cancer cell line NCI-H460; assay type: cell-based
Method: as §1, §2

[22] = tested on: A549; assay: Cell growth inhibition, lung cancer cell line A549; assay type: cell-based
Method: as §1, §2

[23] = tested on: DMS273; assay: Cell growth inhibition, lung cancer cell line DMS273; assay type: cell-based
Method: as §1, §2

[24] = tested on: DMS114; assay: Cell growth inhibition, lung cancer cell line DMS114; assay type: cell-based
Method: as §1, §2

[25] = tested on: LOX-IMVI; assay: Cell growth inhibition, melanoma cell line LOX-IMVI; assay type: cell-based
Method: as §1, §2

[26] = tested on: OVCAR-3; assay: Cell growth inhibition, ovarian cancer cell line OVCAR-3; assay type: cell-based; settings: OVCAR-3, ovarian cancer cell line
Method: as §1, §2

[27] = tested on: OVCAR-4; assay: Cell growth inhibition, ovarian cancer cell line OVCAR-4; assay type: cell-based; settings: OVCAR-4, ovarian cancer cell line
Method: as §1, §2

[28] = tested on: OVCAR-5; assay: Cell growth inhibition, ovarian cancer cell line OVCAR-5; assay type: cell-based; settings: OVCAR-5, ovarian cancer cell line
Method: as §1, §2

[29] = tested on: OVCAR-8; assay: Cell growth inhibition, ovarian cancer cell line OVCAR-8; assay type: cell-based; settings: OVCAR-8, ovarian cancer cell line
Method: as §1, §2

[30] = tested on: SK-OV-3; assay: Cell growth inhibition, ovarian cancer cell line SK-OV-3; assay type: cell-based; settings: SK-OV-3, ovarian cancer cell line
Method: as §1, §2

[31] = tested on: RXF-631L; assay: Cell growth inhibition, renal cancer RXF-631L; assay type: cell-based
Method: as §1, §2

[32] = tested on: ACHN; assay: Cell growth inhibition, renal cancer ACHN; assay type: cell-based
Method: as §1, §2

[33] = tested on: St-4; assay: Cell growth inhibition, human stomach cancer St-4; assay type: cell-based; settings: St-4, human stomach cancer
Method: as §1, §2

[34] = tested on: MKN1; assay: Cell growth inhibition, human stomach cancer MKN1; assay type: cell-based
Method: as §1, §2

[35] = tested on: MKN7; assay: Cell growth inhibition, human stomach cancer MKN7; assay type: cell-based
Method: as §1, §2

[36] = tested on: MKN28; assay: Cell growth inhibition, human stomach cancer MKN28; assay type: cell-based
Method: as §1, §2

[37] = tested on: MKN45; assay: Cell growth inhibition, human stomach cancer MKN45; assay type: cell-based
Method: as §1, §2

[38] = tested on: MKN74; assay: Cell growth inhibition, human stomach cancer MKN74; assay type: cell-based
Method: as §1, §2

[39] = tested on: DU-145; assay: Cell growth inhibition, prostatic cancer DU-145; assay type: cell-based, human; settings: DU-145, prostatic cancer
Method: as §1, §2

[40] = tested on: PC-3; assay: Cell growth inhibition, prostatic cancer PC-3; assay type: cell-based; settings: PC-3, prostatic cancer
Method: as §1, §2

[41] = tested on: all cell types (cancer cell lines of Tables 4-12); assay: Cell growth inhibition, mean over all cell types of the panel; assay type: cell-based; settings: mean over all cell lines of Tables 4-12
Method: as §1, §2

In the case of [Cl-].[Cl-].c1cc[n+]2c(c1)-c1cccc[n+]1[Pd-2]21[NH2+]CC[NH+]1Cc1c2ccccc2cc2ccccc12 [Example 5, [Pd(bpy)(Aten)]Cl2], the “KB cells remaining/growth in percent (Table 2, untitled)” value (“KB cells remaining/growth in percent” below) ([1]; 1 μg/ml) was 86.9%, the “KB cells remaining/growth in percent” value ([1]; 3 μg/mL) was 81.4% and the “KB cells remaining/growth in percent” value ([1]; 10 μg/mL) was 75.1%. For the same compound, the “KB cells remaining/growth in percent” value ([1]; 30 μg/mL) was 44.7%, the “KB cells remaining/growth in percent” value ([1]; 100 μg/mL) was 12.3% and the pIC50 ([1]; concentration to inhibit growth of cells by 50%) was 4.44. For the same compound, the log10 IC50 (M) [2] was -4.91, the log10 IC50 (M) [3] was -5.34 and the log10 IC50 (M) [4] was -4.98. For the same compound, the log10 IC50 (M) [5] was -5.28, the log10 IC50 (M) [6] was -5.29 and the log10 IC50 (M) [7] was -5. It also gave a log10 IC50 (M) [8] of -5.27, a log10 IC50 (M) [9] of -5.31 and a log10 IC50 (M) [10] of -5.36. For the same compound, the log10 IC50 (M) [11] was -5.16, the log10 IC50 (M) [12] was -4.67 and the log10 IC50 (M) [13] was -5.54. For the same compound, the log10 IC50 (M) [14] was -5.22, the log10 IC50 (M) [15] was -5.25 and the log10 IC50 (M) [16] was -5.14. For the same compound, the log10 IC50 (M) [17] was -5.38, the log10 IC50 (M) [18] was -4.88 and the log10 IC50 (M) [19] was -5.41. For the same compound, the log10 IC50 (M) [20] was -5.22, the log10 IC50 (M) [21] was -5.86 and the log10 IC50 (M) [22] was -4.88. The log10 IC50 (M) [23] was -5.24, the log10 IC50 (M) [24] was -5.28 and the log10 IC50 (M) [25] was -5.15. For the same compound, the log10 IC50 (M) [26] was -4.95, the log10 IC50 (M) [27] was -5.06 and the log10 IC50 (M) [28] was -5.3. For the same compound, the log10 IC50 (M) [29] was -5.13, the log10 IC50 (M) [30] was -5.1 and the log10 IC50 (M) [31] was -5.43. The log10 IC50 (M) [32] was -5.22, the log10 IC50 (M) [33] was -5.12 and the log10 IC50 (M) [34] was -5.28. It also gave a log10 IC50 (M) [35] of -5.04, a log10 IC50 (M) [36] of -4.86 and a log10 IC50 (M) [37] of -5.08. It also gave a log10 IC50 (M) [38] of -5.33, a log10 IC50 (M) [39] of -5.1 and a log10 IC50 (M) [40] of -4.9. The log10 IC50 (M) [41] was -5.18.
